In US9237750B2, “Ornidazole and related compounds for use as herbicides” (RAMOT AT TEL-AVIV UNIVERSITY LTD., priority 2012, dated 2016):

Columns and labels:
Dunaliella salina = experiment: Net O2 exchange (photosynthesis and respiration), O2 electrode; format: cell-based, Dunaliella salina (Chlorophyta)
Experimental: (§1) The cyanobacterium Anabaena PCC7120 was grown in BG-11 medium as was previously described (Marcus Y, et al., 2005. J Bacteriol 187, 4222-4228). The green eukaryotic alga Dunaliella salina was grown on a medium described by Ben-Amotz and Avron (Ben-Amotz A and Avron M 1983. Plant Physiol 72, 593-597), under 20 μmol photons m^−2 sec^−1 at 30° C. The aquatic plant Lemna was collected from an open pond at the Botanical garden of Tel Aviv University. Seedlings of Avena sterilis were grown in pots in a greenhouse. The marine diatom Phaeodactylum tricornutum was grown as described in Haimovich-Dayan et al. (Haimovich-Dayan M. et al. 2012. New Phytol 195:177-185).
(§2) The rate of net O2 exchange was determined using a Clark-type O2 electrode (Rank Brothers Ltd, UK). Fluorescent measurements (quantum yield, photochemical and non photochemical quenching) were determined using a modulated fluorometer (PAM, Walz, Germany) as described by Schreiber et al. (Schreiber U et al., 1986. fluorometer. Photosynth Res 10, 51-62) and Snir et al. (Snir A, et al., 2006. Photosynth Res 90, 233-242).
(§3) The algae Anabaena PCC7120 (Cyanobacteria), Dunaliella salina (Chlorophyta) and Phaeodactylum tricornutum (Diatoms) were each grown in its suitable medium as described hereinabove towards the mid logarithmic phase. 1 mM Ornidazole was then added to the medium for 5 min, and respiration and photosynthesis were measured for at least 10 min.

Anabaena PCC7120 [1] = experiment: as above; format: cell-based, Anabaena PCC7120 (Cyanobacteria)
Experimental: as §1, §2, §3
The effect of Ornidazole on the rate of photosynthesis of Anabaena was also determined. The algae were grown under various light intensities and saturating inorganic carbon (Ci) concentration, or under various Ci concentrations and saturating irradiance.

Anabaena PCC7120 [2] = experiment: Growth of cyanobacterium determined by chlorophyll concentration; format: cell-based
Experimental: Cyanobacteria were grown in BG11 medium under 30 μmol photons m^−2 sec^−1 at 30° C. in the presence of the indicated concentration of Ornidazole.
as §1
The effect of Ornidazole on the growth of the cyanobacterium Anabaena PCC7120 was examined by determining the chlorophyll concentration. The algae were grown in BG-11 medium as described herein above. […] One mM Ornidazole in the medium caused a decrease in chlorophyll concentration to 1% of its original concentration after three days of such incubation (FIG. 1).

[3] = molecular target: glyceraldehyde-3-phosphate dehydrogenase (GAPDH) (Homo sapiens, UniProt P04406); settings: glycolytic GAPDH; cited from earlier work
Sequence of glyceraldehyde-3-phosphate dehydrogenase (GAPDH) (P04406 whole entry, species assumed): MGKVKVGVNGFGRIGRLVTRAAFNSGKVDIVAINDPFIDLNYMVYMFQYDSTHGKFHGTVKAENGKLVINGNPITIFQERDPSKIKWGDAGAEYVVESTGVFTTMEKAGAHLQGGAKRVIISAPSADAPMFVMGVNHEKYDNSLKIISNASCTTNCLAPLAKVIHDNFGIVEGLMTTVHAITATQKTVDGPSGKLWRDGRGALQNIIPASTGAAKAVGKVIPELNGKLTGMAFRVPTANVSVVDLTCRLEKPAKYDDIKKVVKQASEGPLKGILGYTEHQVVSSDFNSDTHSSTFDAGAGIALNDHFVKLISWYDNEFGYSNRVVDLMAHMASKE

Avena sterilis = experiment: Photosynthetic quantum yield of immersed leaf blades (PAM fluorimeter); format: in vivo; settings: 1 mM Ornidazole in water, 3.5 hours
Experimental: Leaves of Avena seedlings grown in a pot (still attached to the stem) were immersed in 1 mM Ornidazole for the indicated times. The photosynthetic quantum yield under various light intensities was determined with a PAM fluorimeter. The rate of net O2 exchange was determined using a Clark-type O2 electrode (Rank Brothers Ltd, UK). Fluorescent measurements (quantum yield, photochemical and non photochemical quenching) were determined using a modulated fluorometer (PAM, Walz, Germany) as described by Schreiber et al. (Schreiber U et al., 1986. fluorometer. Photosynth Res 10, 51-62) and Snir et al. (Snir A, et al., 2006. Photosynth Res 90, 233-242). Similar results were obtained by immersion of leaf blades of the weed Avena sterilis in 1 mM Ornidazole in water. After 3.5 hours of incubation the quantum yield of photosynthesis decreased by 50% under limiting light intensity and by 85% under saturating light intensity (FIG. 4).

[4] = Dunaliella salina, 1 mM Ornidazole added for 5 min
[5] = Anabaena PCC7120, 1 mM Ornidazole added for 5 min

Work on `Cc1ncc([N+](=O)[O-])n1CC(O)CCl` (stereo not drawn) [Ornidazole, 1-chloro-3-(2-methyl-5-nitro-1H-imidazol-1-yl)propan-2-ol] yielded a Photosynthesis (Dunaliella salina; [4]) of 17.88 μmol O2 mg^−1 chl h^−1, a Respiration (Dunaliella salina; [4]) of −3.13 μmol O2 mg^−1 chl h^−1 and an inhibition at 1000 µM (Dunaliella salina; Dunaliella salina, Dunaliella, 1 mM, read-out: inhibition of respiration rate) of 30 to 35%. The effect on photosynthesis (Dunaliella salina; Dunaliella, higher concentrations (than 1 mM) or longer incubation time) was “abolished photosynthesis”, the Photosynthesis (Anabaena PCC7120 [1]; [5]) was −3.7 μmol O2 mg^−1 chl h^−1 and the Respiration (Anabaena PCC7120 [1]; [5]) was −26.5 μmol O2 mg^−1 chl h^−1. For the same compound, the inhibition at 1000 µM (Anabaena PCC7120 [1]; Anabaena, 1 mM, read-out: inhibition of respiration rate) was 30 to 35%, the effect on photosynthesis (Anabaena PCC7120 [1]; Anabaena, higher concentrations (than 1 mM) or longer incubation time) was “abolished photosynthesis” and the “effect on photosynthetic rate” value (Anabaena PCC7120 [1]; limiting irradiance) was “inhibited the photosynthetic rate to a lesser extent”. The “effect on photosynthetic rate” value (Anabaena PCC7120 [1]; saturating irradiance at any Ci concentration) was “concentration-dependent decrease in the photosynthetic rate”, the effect on growth (Anabaena PCC7120 [2]; 250 μM Ornidazole in BG-11 medium) was “stopped the growth and stimulated chlorosis” and the “chlorophyll concentration relative to original concentration” value (Anabaena PCC7120 [2]; 1 mM Ornidazole in the medium, after three days) was 1%. The “inhibition of enzyme activity” value [3] was “inhibits the activity”, the “decrease of quantum yield of photosynthesis” value (Avena sterilis; limiting light intensity) was 50% and the “decrease of quantum yield of photosynthesis” value (Avena sterilis; saturating light intensity) was 85%.
